Measurements reported in patent US9809843B1, “High throughput measurement of DNA base lesion repair capacity” (THE FLORIDA INTERNATIONAL UNIVERSITY BOARD OF TRUSTEES, priority 2016, dated 2017).

Experiments:
[1] = test system: prostate cancer (LNCaP) cell extracts; assay: BER capacity of prostate cancer cell extracts (fluorescence assay); format: biochemical, human; conditions: 25 μg cell extracts, inhibitor 200 μM, 37° C. 30 minutes; FIG. 7
Description: Cell pellets were re-suspended in lysis buffer that contained 10 mM Tris-HCl, pH 7.8, 200 mM KCl, 1 mM EDTA, 20% glycerol, 0.1% Nonidet P-40, 1 mM DTT with proteinase inhibitors (Roche Diagnostics Corporation, Indianapolis, Ind.). Cell suspension was subsequently subjected to rotation at 4° C. for 2 hours. After rotation, cell lysates were centrifuged at 14,000 rpm at 4° C. for 30 minutes to remove cell debris. The supernatant was recovered and further dialyzed into BER reaction buffer containing 50 mM Tris-HCl, pH 7.5, 50 mM KCl, 0.1 mM EDTA, 0.1 mg/ml bovine serum albumin, and 0.01% Nonidet P-40. Protein concentration of cell lysates was determined by Bradford assay. Cell lysates were aliquoted and stored at −80° C. for subsequent assay.
Substrates (25 nM) were pre-incubated with 25 nM purified APE1 at 37° C. for 15 minutes, and completely converted into ssDNA break intermediates for subsequent BER reactions. In vitro BER of a THF base lesion was performed by incubating APE1 precut substrate with 25 μg cell extracts in 10 μl-reaction mixtures that contained BER reaction buffer with 5 mM Mg^2+, 50 μM dNTP and 2 mM ATP in the absence or presence of inhibitors. Reaction mixtures were assembled on ice and incubated at 37° C. for 30 minutes.
10 μl-reaction mixtures were then transferred to […] black plates (Thermo Fisher Scientific, Pittsburgh, Pa.) and subjected to fluorescence reading. Each substrates/lysate/inhibitor combination was run in triplicate.
[…] plates were read at an excitation wavelength of 485±20 nm and an emission wavelength of 528±20 nm on a Synergy HTX Plate Reader (Bio-Tek, Winooski, Vt.). Data were exported to Excel for statistical analysis.
The fluorescence reading of each well needs to be abstracted by the reading from the well with 10 μl-BER reaction buffer alone before further data analysis. Normalized fluorescence data were averaged and plotted as “Average±Standard Deviation.” […]

[2] = target: Exo III (Escherichia coli, UniProt P09030); conditions: 0.5 U EXO III
Description: 0.5 U EXO III was added into each reaction and incubated at 37° C. for 10 minutes to release fluorescence signal. Reaction mixtures were incubated at 50° C. for additional 30 min to ensure the complete release of 6-FAM conjugated unrepaired DNA substrates. EDTA was added into each reaction at a final concentration of 50 mM to terminate the reactions. Fluorescence readings were measured at excitation wavelength of 485±20 nm and emission wavelength of 528±20 nm on Synergy HTX Plate Reader. Data were exported for statistical analysis. The fluorescence reading of each well were adjusted by subtracting background reading signals from a control containing substrate […]. Normalized fluorescence data were averaged and plotted with corresponding statistical errors.

Chain of Exo III (P09030 whole entry): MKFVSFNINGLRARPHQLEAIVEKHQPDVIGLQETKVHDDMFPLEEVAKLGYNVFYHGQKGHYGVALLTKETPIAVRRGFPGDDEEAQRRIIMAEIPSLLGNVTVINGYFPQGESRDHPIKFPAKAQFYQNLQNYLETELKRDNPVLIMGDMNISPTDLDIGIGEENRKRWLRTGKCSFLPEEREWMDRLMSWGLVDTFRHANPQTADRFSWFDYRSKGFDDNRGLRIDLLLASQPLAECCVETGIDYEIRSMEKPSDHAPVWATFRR

SMILES	effects on reducing BER capacity of prostate cancer (LNCaP) cell extracts [1]	inhibitory effects on Exo III activity [2]
Cc1cc(S(=O)(=O)Nc2n[nH]c(Nc3ccc(Cl)cc3)n2)c(S)cc1Cl [NSC-666715]	not significant	do not exhibit any inhibitory effects
NC1=NC(=O)N(C2CC(O)C(COP(=O)(O)O)O2)C(I)C1 (stereo not drawn) [NSC-124854]	not significant	do not exhibit any inhibitory effects
Cc1cc(S(=O)(=O)Nc2n[nH]c(Nc3ccc4ccccc4c3)n2)c(S)cc1Cl [NSC-666719]	not significant	do not exhibit any inhibitory effects
